Test results: ChEMBL document CHEMBL3396981, “Synthesis and in vitro biological evaluation of 2-(phenylcarbamoyl)phenyl 4-substituted benzoates” (Bioorg Med Chem, 2015)
Values after ≈ are worked out from the molar mass of the structure shown.

Legend:
Mycobacterium kansasii [1] = test: Antimycobacterial activity against Mycobacterium kansasii 6509/96 after 7 days by microdilution method; type: functional; conditions: 6509/96, 168 h
Mycobacterium kansasii [2] = test: Antimycobacterial activity against Mycobacterium kansasii 6509/96 after 14 days by microdilution method; type: functional; conditions: 6509/96, 336 h
Mycobacterium avium [3] = test: Antimycobacterial activity against INH,RIF,OFX,EMB-resistant Mycobacterium avium 330/88 after 21 days by microdilution method; type: functional; conditions: 330/88, 504 h
[4] = Selectivity index, ratio of IC50 for human HepG2 cells to MIC for atypical mycobacteria
[5] = Selectivity index, ratio of IC50 for human HepG2 cells to MIC for Mycobacterium tuberculosis; type: toxicity, cell-based; conditions: read-out: Selectivity Index
Mycobacterium kansasii [6] = test: Antimycobacterial activity against Mycobacterium kansasii 6509/96 after 21 days by microdilution method; type: functional; conditions: 6509/96, 504 h
[7] = tested on: Mycobacterium tuberculosis; test: Antimycobacterial activity against Mycobacterium tuberculosis H37Rv 331/88 after 14 days by microdilution method; type: functional; conditions: H37Rv 331/88, 336 h
Mycobacterium kansasii [8] = test: Antimycobacterial activity against Mycobacterium kansasii 235/80 after 14 days by microdilution method; type: functional; conditions: 235/80, 336 h
Mycobacterium avium [9] = test: Antimycobacterial activity against INH,RIF,OFX,EMB-resistant Mycobacterium avium 330/88 after 14 days by microdilution method; type: functional; conditions: 330/88, 336 h
HepG2 [10] = test: Cytotoxicity against human HepG2 cells after 72 hrs by MTT assay; type: cell-based; conditions: HepG2, 72 h
Mycobacterium kansasii [11] = test: Antimycobacterial activity against Mycobacterium kansasii 235/80 after 7 days by microdilution method; type: functional; conditions: 235/80, 168 h
Mycobacterium kansasii [12] = test: Antimycobacterial activity against Mycobacterium kansasii 235/80 after 21 days by microdilution method; type: functional; conditions: 235/80, 504 h
HepG2 [13] = test: Cytostatic activity against human HepG2 cells after 72 hrs by MTT assay; type: functional, cell-based; conditions: HepG2, 72 h
[14] = tested on: Mycobacterium tuberculosis; test: Antimycobacterial activity against Mycobacterium tuberculosis H37Rv 331/88 after 21 days by microdilution method; type: functional; conditions: H37Rv 331/88, 504 h
Trichosporon asahii [15] = test: Antifungal activity against Trichosporon asahii 1188 after 48 hrs by broth microdilution method; type: functional; conditions: Trichosporon asahii, 1188, 48 h
Trichosporon asahii [16] = test: Antifungal activity against Trichosporon asahii 1188 after 24 hrs by broth microdilution method; type: functional; conditions: Trichosporon asahii, 1188, 24 h

SMILES | MIC (Mycobacterium kansasii [1]) [µM] | MIC (Mycobacterium kansasii [2]) [µM] | MIC (Mycobacterium avium [3]) [µM] | Selectivity Index [4] | selectivity ratio [5] | MIC (Mycobacterium kansasii [6]) [µM] | MIC [7] [µM] | MIC (Mycobacterium kansasii [8]) [µM] | MIC (Mycobacterium avium [9]) [µM] | IC50 (HepG2 [10]) [µM] | MIC (Mycobacterium kansasii [11]) [µM] | MIC (Mycobacterium kansasii [12]) [µM] | IC50 (HepG2 [13]) [µM] | MIC [14] [µM] | MIC (Trichosporon asahii [15]) [µM] | MIC (Trichosporon asahii [16]) [µM]
Cc1ccc(C(=O)Oc2ccc(Cl)cc2C(=O)Nc2ccc(Cl)c(Cl)c2)cc1 | 2 (≈ 0.869 µg/mL) | 4 (≈ 1.74 µg/mL) | 8 (≈ 3.48 µg/mL) | >6.25 | > 50 | 4 (≈ 1.74 µg/mL) | 1 (≈ 0.435 µg/mL) | 2 (≈ 0.869 µg/mL) | 8 (≈ 3.48 µg/mL) | > 50 | 1 (≈ 0.435 µg/mL) | 2 (≈ 0.869 µg/mL) | 2.55 | 1 (≈ 0.435 µg/mL) |  | 
O=C(Oc1ccc(Br)cc1C(=O)Nc1ccc(C(F)(F)F)cc1)c1ccc(C(F)(F)F)cc1 | 1 (≈ 0.532 µg/mL) | 2 (≈ 1.06 µg/mL) | 4 (≈ 2.13 µg/mL) |  |  | 4 (≈ 2.13 µg/mL) | 1 (≈ 0.532 µg/mL) | 2 (≈ 1.06 µg/mL) | 2 (≈ 1.06 µg/mL) |  | 1 (≈ 0.532 µg/mL) | 4 (≈ 2.13 µg/mL) |  | 1 (≈ 0.532 µg/mL) |  | 
O=C(Oc1ccc(Cl)cc1C(=O)Nc1ccc(Cl)c(Cl)c1)c1ccccc1 | 1 (≈ 0.421 µg/mL) | 2 (≈ 0.841 µg/mL) | 8 (≈ 3.37 µg/mL) |  |  | 2 (≈ 0.841 µg/mL) | 1 (≈ 0.421 µg/mL) | 4 (≈ 1.68 µg/mL) | 8 (≈ 3.37 µg/mL) |  | 2 (≈ 0.841 µg/mL) | 4 (≈ 1.68 µg/mL) |  | 1 (≈ 0.421 µg/mL) |  | 
O=C(Oc1ccc(Cl)cc1C(=O)Nc1ccc(C(F)(F)F)cc1)c1ccc(Br)cc1 | 1 (≈ 0.499 µg/mL) | 2 (≈ 0.997 µg/mL) | 4 (≈ 1.99 µg/mL) | >12.5 | > 50 | 2 (≈ 0.997 µg/mL) | 1 (≈ 0.499 µg/mL) | 1 (≈ 0.499 µg/mL) | 4 (≈ 1.99 µg/mL) | > 50 | 0.5 (≈ 0.249 µg/mL) | 1 (≈ 0.499 µg/mL) | 14.5 | 1 (≈ 0.499 µg/mL) |  | 
O=C(Nc1ccc(Cl)c(Cl)c1)c1cc(Cl)ccc1O | 8 (≈ 2.53 µg/mL) | 8 (≈ 2.53 µg/mL) | 32 (≈ 10.1 µg/mL) |  |  | 8 (≈ 2.53 µg/mL) | 4 (≈ 1.27 µg/mL) | 8 (≈ 2.53 µg/mL) | 32 (≈ 10.1 µg/mL) |  | 4 (≈ 1.27 µg/mL) | 8 (≈ 2.53 µg/mL) |  | 8 (≈ 2.53 µg/mL) |  | 
Nc1ccc(C(=O)O)c(O)c1 [AMINOSALICYLIC ACID] | 32 (≈ 4.9 µg/mL) | 125 (≈ 19.1 µg/mL) | 125 (≈ 19.1 µg/mL) | <2.2 | 35.8 | 500 (≈ 76.6 µg/mL) | 62.5 (≈ 9.57 µg/mL) | 1000 (≈ 153 µg/mL) | 32 (≈ 4.9 µg/mL) |  | 125 (≈ 19.1 µg/mL) | > 1000 |  | 62.5 (≈ 9.57 µg/mL) |  | 
O=C(Oc1ccc(Cl)cc1C(=O)Nc1ccc(C(F)(F)F)cc1)c1ccc(C(F)(F)F)cc1 | 1 (≈ 0.488 µg/mL) | 2 (≈ 0.976 µg/mL) | 4 (≈ 1.95 µg/mL) |  |  | 4 (≈ 1.95 µg/mL) | 1 (≈ 0.488 µg/mL) | 2 (≈ 0.976 µg/mL) | 1 (≈ 0.488 µg/mL) |  | 1 (≈ 0.488 µg/mL) | 4 (≈ 1.95 µg/mL) |  | 1 (≈ 0.488 µg/mL) |  | 
O=C(Nc1ccc(C(F)(F)F)cc1)c1cc(Br)ccc1O | 2 (≈ 0.72 µg/mL) | 4 (≈ 1.44 µg/mL) | 2 (≈ 0.72 µg/mL) |  |  | 4 (≈ 1.44 µg/mL) | 1 (≈ 0.36 µg/mL) | 2 (≈ 0.72 µg/mL) | 2 (≈ 0.72 µg/mL) |  | 2 (≈ 0.72 µg/mL) | 4 (≈ 1.44 µg/mL) |  | 1 (≈ 0.36 µg/mL) |  | 
O=C(Oc1ccc(Cl)cc1C(=O)Nc1ccc(C(F)(F)F)cc1)c1ccccc1 | 2 (≈ 0.84 µg/mL) | 2 (≈ 0.84 µg/mL) | 4 (≈ 1.68 µg/mL) |  |  | 2 (≈ 0.84 µg/mL) | 0.5 (≈ 0.21 µg/mL) | 1 (≈ 0.42 µg/mL) | 4 (≈ 1.68 µg/mL) |  | 1 (≈ 0.42 µg/mL) | 1 (≈ 0.42 µg/mL) |  | 1 (≈ 0.42 µg/mL) |  | 
O=C(Oc1ccc(Br)cc1C(=O)Nc1ccc(C(F)(F)F)cc1)c1ccc(Br)cc1 | 4 (≈ 2.17 µg/mL) | 4 (≈ 2.17 µg/mL) | 8 (≈ 4.35 µg/mL) | >6.25 | > 50 | 4 (≈ 2.17 µg/mL) | 1 (≈ 0.543 µg/mL) | 2 (≈ 1.09 µg/mL) | 8 (≈ 4.35 µg/mL) | > 50 | 1 (≈ 0.543 µg/mL) | 4 (≈ 2.17 µg/mL) | 4.2 | 1 (≈ 0.543 µg/mL) |  | 
OC(Cn1cncn1)(Cn1cncn1)c1ccc(F)cc1F [FLUCONAZOLE] |  |  |  |  |  |  |  |  |  |  |  |  |  |  | 9 (≈ 2.76 µg/mL) | 4 (≈ 1.23 µg/mL)
O=C(Nc1ccc(C(F)(F)F)cc1)c1cc(Cl)ccc1O | 2 (≈ 0.631 µg/mL) | 2 (≈ 0.631 µg/mL) | 8 (≈ 2.53 µg/mL) |  |  | 2 (≈ 0.631 µg/mL) | 2 (≈ 0.631 µg/mL) | 2 (≈ 0.631 µg/mL) | 8 (≈ 2.53 µg/mL) |  | 1 (≈ 0.316 µg/mL) | 2 (≈ 0.631 µg/mL) |  | 2 (≈ 0.631 µg/mL) |  | 
O=C(Oc1ccc(Br)cc1C(=O)Nc1ccc(C(F)(F)F)cc1)c1ccc([N+](=O)[O-])cc1 | 0.5 (≈ 0.255 µg/mL) | 0.5 (≈ 0.255 µg/mL) | 2 (≈ 1.02 µg/mL) | >25 | > 100 | 1 (≈ 0.509 µg/mL) | 0.5 (≈ 0.255 µg/mL) | 1 (≈ 0.509 µg/mL) | 1 (≈ 0.509 µg/mL) | > 50 | 0.5 (≈ 0.255 µg/mL) | 1 (≈ 0.509 µg/mL) | 1.25 | 0.5 (≈ 0.255 µg/mL) |  | 
O=C(Oc1ccc(Cl)cc1C(=O)Nc1ccc(Cl)c(Cl)c1)c1ccc(C(F)(F)F)cc1 | 1 (≈ 0.489 µg/mL) | 2 (≈ 0.977 µg/mL) | 4 (≈ 1.95 µg/mL) |  |  | 4 (≈ 1.95 µg/mL) | 1 (≈ 0.489 µg/mL) | 2 (≈ 0.977 µg/mL) | 4 (≈ 1.95 µg/mL) |  | 1 (≈ 0.489 µg/mL) | 4 (≈ 1.95 µg/mL) |  | 1 (≈ 0.489 µg/mL) |  | 
O=C(Oc1ccc(Cl)cc1C(=O)Nc1ccc(C(F)(F)F)cc1)c1ccc([N+](=O)[O-])cc1 | 1 (≈ 0.465 µg/mL) | 2 (≈ 0.93 µg/mL) | 4 (≈ 1.86 µg/mL) | >12.5 | > 50 | 4 (≈ 1.86 µg/mL) | 0.5 (≈ 0.232 µg/mL) | 2 (≈ 0.93 µg/mL) | 4 (≈ 1.86 µg/mL) | > 50 | 1 (≈ 0.465 µg/mL) | 4 (≈ 1.86 µg/mL) | 1.15 | 1 (≈ 0.465 µg/mL) |  | 
O=C(Oc1ccc(Br)cc1C(=O)Nc1ccc(C(F)(F)F)cc1)c1ccccc1 | 2 (≈ 0.928 µg/mL) | 2 (≈ 0.928 µg/mL) | 4 (≈ 1.86 µg/mL) |  |  | 2 (≈ 0.928 µg/mL) | 1 (≈ 0.464 µg/mL) | 2 (≈ 0.928 µg/mL) | 4 (≈ 1.86 µg/mL) |  | 2 (≈ 0.928 µg/mL) | 2 (≈ 0.928 µg/mL) |  | 1 (≈ 0.464 µg/mL) |  | 
